Data set [1] relates to Venturia inaequalis. The experiment in a line: Venturia test (apple) / protective. Format: in vivo. Particulars: 240 h, active compound concentration 100 ppm, evaluation 10 days after inoculation, read-out: efficacy. Here is the method:
After the spray coating has dried on, the plants are inoculated with an aqueous conidia suspension of the apple scab pathogen Venturia inaequalis and then remain for 1 day in an incubation cabinet at about 20° C. and 100% relative atmospheric humidity.

For data set [2], the system named is Alternaria solani. The experiment in a line: Alternaria test (tomato) / protective. Format: in vivo. To be noted: 72 h, active compound concentration 100 ppm, evaluation 3 days after inoculation, read-out: efficacy. Here is the method:
The plants are then placed in an incubation cabinet at about 20° C. and 100% relative atmospheric humidity.

Data set [3] deals with Sphaerotheca fuliginea. The data set is described as follows: Sphaerotheca test (cucumber) / protective. Format: in vivo. Particulars: Podosphaera fuliginea, 168 h, active compound concentration 500 ppm, evaluation 7 days after inoculation, read-out: efficacy. On the procedure: The plants are subsequently placed in a greenhouse at 70% relative atmospheric humidity and a temperature of 23° C.

The test system of data set [4] is Leptosphaeria nodorum. The data set is described as follows: Leptosphaeria nodorum test (wheat) / protective. Type of data set: in vivo. To be noted: Parastagonospora nodorum, active compound concentration 500 ppm, evaluation 7-9 days after inoculation, read-out: efficacy. On the procedure:
Thereafter, the plants are placed in a greenhouse at 90% relative atmospheric humidity and a temperature of 22° C.

The subject of data set [5] is Pyrenophora teres. The experiment in a line: Pyrenophora teres test (barley) / protective. Type of data set: in vivo. To be noted: 192 h, active compound concentration 500 ppm, evaluation 8 days after inoculation, read-out: efficacy. Here is the method:
After the spray coating has dried on, the plants are sprayed with a spore suspension of Pyrenophora teres. The plants remain in an incubation cabinet for 48 hours at 20° C. and 100% relative atmospheric humidity.

Data set [6] concerns Pyricularia oryzae. The experiment in a line: whole plant or invertebrate. Type of data set: in vivo. Particulars: 120 h, read-out: efficacy.
Data set [7] in a line: logP by LC-MS on reversed-phase columns (C 18), method [b], acidic range pH 2.7. Type of data set: physicochemical. Particulars: pH 2.7, log p. Here is the method:
(§1) The logP values were determined in accordance with EEC Directive 79/831 Annex V.A8 by HPLC (High Performance Liquid Chromatography) on reversed-phase columns (C 18), using the methods below:
[b] The LC-MS determination in the acidic range is carried out at pH 2.7 using the mobile phases 0.1% aqueous formic acid and acetonitrile (contains 0.1% formic acid), linear gradient from 10% acetonitrile to 95% acetonitrile.

The subject of data set [8] is Rhizoctonia solani. The data set is described as follows: Rhizoctonia test (rice) / protective. To be noted: 96 h, active compound concentration 250 ppm, evaluation 4 days after inoculation, read-out: efficacy. Type of data set: in vivo.
Data set [9] can be described thus: logP by LC-MS on reversed-phase columns (C 18), method [c], neutral range pH 7.8. Type of data set: physicochemical. To be noted: pH 7.8. On the procedure:
as §1
[c] The LC-MS determination in the neutral range is carried out at pH 7.8 using the mobile phases 0.001 molar aqueous ammonium bicarbonate solution and acetonitrile, linear gradient from 10% acetonitrile to 95% acetonitrile.

For data set [10], the system named is Cochliobolus miyabeanus. The data set is described as follows: Cochliobolus test (rice) / protective. To be noted: Bipolaris oryzae, in Oryza sativa, 96 h, read-out: efficacy.
Protocol: Cochliobolus Test (Rice)/Protective • Solvent: 28.5 parts by weight of acetone • Emulsifier: 1.5 parts by weight of alkylaryl polyglycol ether
1 day after the treatment, the plants are inoculated with an aqueous spore suspension of Cochliobolus miyabeanus. The plants are then placed in a greenhouse at 100% relative atmospheric humidity and 25° C.
Evaluation is carried out 4 days after the inoculation.

In general, chromatographic logP refers to a lipophilicity value derived from retention on a column. A low value points to lower lipophilicity. On to `CSC(C)c1cccc(Nc2ncc(Br)c(NC3CCC3)n2)c1` (stereo not drawn) [Example 13], for which the pest or weed control at 100 ppm in data set [1] and in data set [2] was no less than 70% throughout. For the same compound, the pest or weed control at 500 ppm in [3], in data set [4] and in data set [5] was no less than 70% each time. Moreover, the pest or weed control at 250 ppm in data set [6] is no less than 80%. Besides, in data set [7], the chromatographic logP amounted to 3.07.
Take `CSC(C)c1cccc(Nc2ncc(Cl)c(NC3CCC3)n2)c1` (stereo not drawn) [Example 14]: the pest or weed control at 100 ppm in [1] and in [2] was no less than 70% throughout. For the same compound, the pest or weed control at 500 ppm in data set [4] and in data set [5] was no less than 70% throughout. Further, the pest or weed control at 250 ppm in data set [6] and in data set [8] was no less than 80% in each case. In addition, in data set [7], the chromatographic logP stood at 2.82.
Regarding `CCSCc1cccc(Nc2ncc(Cl)c(NC(C)C)n2)c1` [Example 33], the pest or weed control at 100 ppm in data set [1] and in data set [2] was no less than 70% each time. Besides, the pest or weed control at 500 ppm in [3], in data set [4] and in data set [5] was no less than 70% throughout. Further, the chromatographic logP in [7] was 2.61.
`CCC[S+]([O-])c1cccc(Nc2ncc(C(F)(F)F)c(NC3CCC3)n2)c1` (stereo not drawn) [Example 35]: the pest or weed control at 100 ppm in [1] and in [2] was no less than 70% in each case. Further, the pest or weed control at 500 ppm in data set [3] and in data set [4] was no less than 70% in each case. This compound returned a chromatographic logP in data set [7] of 2.97.
`CCCSc1cccc(Nc2ncc(Cl)c(NC3CC3C)n2)c1` (stereo not drawn) [Example 63]: the pest or weed control at 100 ppm in data set [1] and in data set [2] was no less than 70% throughout. For the same compound, the pest or weed control at 500 ppm in [4] is no less than 70%. For the same compound, the chromatographic logP in [7] is 3.58.
As to `COCc1cccc(Nc2ncc(Cl)c(NC3CC3C)n2)c1` (stereo not drawn) [Example 65], the pest or weed control at 100 ppm in data set [1] and in [2] was no less than 70% throughout. In [4], the pest or weed control at 500 ppm was no less than 70%. Further, the chromatographic logP in data set [7] was found to be 2.03; in [9], 3.3.
`COCCOc1cccc(Nc2ncc(Cl)c(NC3CCC3)n2)c1` [Example 66]: the pest or weed control at 100 ppm in [1] and in data set [2] was no less than 70% throughout. Also, the pest or weed control at 500 ppm in data set [4] and in data set [5] was no less than 70% throughout. Moreover, in data set [6], the pest or weed control at 250 ppm is no less than 80%. The compound further showed a chromatographic logP in [7] of 2.12.
Turning to `CCS(=O)(=O)C(C)c1cccc(Nc2ncc(Cl)c(NC3CC3)n2)c1` (stereo not drawn) [Example 75], the pest or weed control at 500 ppm in [3], in [4] and in data set [5] was no less than 70% each time. For the same compound, the pest or weed control at 250 ppm in data set [6] and in [10] was no less than 80% in each case. The same compound gave a chromatographic logP in [7] of 2.54.
With `COCCOc1ccc(Nc2ncc(C(F)(F)F)c(NC3CC3)n2)cc1` [Example 82], the pest or weed control at 500 ppm in [4] and in data set [5] was no less than 70% in each case. Also, the pest or weed control at 250 ppm in [6] and in data set [10] was no less than 80% throughout. Besides, the chromatographic logP in data set [7] is 2.3; in [9], 3.06.
For `CCNc1nc(Nc2cccc(COC)c2)ncc1Cl` [Example 95], in [4], the pest or weed control at 500 ppm was no less than 70%. The pest or weed control at 250 ppm in [6] and in data set [10] was no less than 80% in each case. The chromatographic logP in data set [7] stood at 1.47; in data set [9] it was 2.84.
Turning to `CCC1CC1Nc1nc(Nc2cccc(COC)c2)ncc1Cl` (stereo not drawn) [Example 108], the pest or weed control at 500 ppm in data set [4] is no less than 70%. For the same compound, the pest or weed control at 250 ppm in data set [6] and in [10] was no less than 80% each time. This compound showed a chromatographic logP in [7] of 2.46.
`CCS(=O)(=O)c1cccc(Nc2ncc(Br)c(NC3CCC3)n2)c1` [Example 111]: the pest or weed control at 100 ppm in [1] and in [2] was no less than 70% in each case. For the same compound, the pest or weed control at 500 ppm in data set [3] and in [4] was no less than 70% in each case. The chromatographic logP in [7] came to 2.36; in data set [9], 3.06.
Regarding `CCS(=O)(=O)c1cccc(Nc2ncc(Cl)c(NC3CC3)n2)c1` [Example 113], the pest or weed control at 100 ppm in data set [1] and in [2] was no less than 70% in each case. The pest or weed control at 500 ppm in data set [3], in [4] and in data set [5] was no less than 70% each time. Besides, the chromatographic logP was 1.87 in data set [7] and 2.48 in [9].
Regarding `CCS(=O)(=O)c1cccc(Nc2ncc(C(F)(F)F)c(NC3CCC3)n2)c1` [Example 118], the pest or weed control at 100 ppm in data set [1] and in data set [2] was no less than 70% in each case. Besides, the pest or weed control at 500 ppm in data set [3], in data set [4] and in [5] was no less than 70% throughout. The chromatographic logP in data set [7] turned out to be 3.07; in data set [9], 3.23.
On to `CC[S+]([O-])c1cccc(Nc2ncc(C(F)(F)F)c(NC3CCC3)n2)c1` (stereo not drawn) [Example 119], for which the pest or weed control at 100 ppm in data set [1] and in data set [2] was no less than 70% in each case. Also, the pest or weed control at 500 ppm in [3], in data set [4] and in data set [5] was no less than 70% in each case. Further, the chromatographic logP in [7] turned out to be 2.61; in data set [9] it was 2.81.
Regarding `CCC(c1cccc(Nc2ncc(Cl)c(NC3CC3)n2)c1)S(=O)(=O)CC` (stereo not drawn) [Example 120], the pest or weed control at 100 ppm in [1] and in data set [2] was no less than 70% each time. Besides, the pest or weed control at 500 ppm in data set [3] and in data set [4] was no less than 70% in each case. For the same compound, the chromatographic logP is 1.94 in data set [7] and 2.83 in data set [9].
As to `CCCCS(=O)(=O)c1cccc(Nc2ncc(Br)c(NC3CC3)n2)c1` [Example 125], the pest or weed control at 100 ppm in data set [1] and in [2] was no less than 70% in each case. In [4], the pest or weed control at 500 ppm was no less than 70%. Moreover, the chromatographic logP in [7] worked out at 2.81; in [9], 3.32.
With `CCC(C)SC(C)c1cccc(Nc2ncc(Cl)c(NC3CC3)n2)c1` (stereo not drawn) [Example 133], the pest or weed control at 100 ppm in [1] and in data set [2] was no less than 70% throughout. Moreover, the pest or weed control at 500 ppm in data set [3], in data set [4] and in data set [5] was no less than 70% each time. The chromatographic logP in data set [7] came to 3.79; in [9] it was 5.08.
On to `CCC(C)S(=O)(=O)C(C)c1cccc(Nc2ncc(Cl)c(NC3CC3)n2)c1` (stereo not drawn) [Example 163], for which the pest or weed control at 100 ppm in data set [1] and in data set [2] was no less than 70% in each case. Moreover, the pest or weed control at 500 ppm in [3], in data set [4] and in data set [5] was no less than 70% throughout. For the same compound, the chromatographic logP in [7] is 2.16; in data set [9], 3.16.
Take `CCC(C)[S+]([O-])C(C)c1cccc(Nc2ncc(Cl)c(NC3CC3)n2)c1` (stereo not drawn) [Example 164]: the pest or weed control at 100 ppm in [1] and in data set [2] was no less than 70% throughout. The pest or weed control at 500 ppm in data set [3], in [4] and in data set [5] was no less than 70% in each case. The chromatographic logP in data set [7] amounted to 2; in data set [9], 2.79.
Turning to `CCCC[S+]([O-])c1cccc(Nc2ncc(Cl)c(NC3CCC3)n2)c1` (stereo not drawn) [Example 171], the pest or weed control at 100 ppm in data set [1] and in data set [2] was no less than 70% in each case. For the same compound, in data set [4], the pest or weed control at 500 ppm is no less than 70%. Also, the values for the chromatographic logP in [7] and in data set [9] were 2.48 and 3.31, respectively.
With `CCC[S+]([O-])c1cccc(Nc2ncc(Cl)c(NC3CC3)n2)c1` (stereo not drawn) [Example 205], the pest or weed control at 100 ppm in [1] and in [2] was no less than 70% throughout. Further, the pest or weed control at 500 ppm in [3], in data set [4] and in data set [5] was no less than 70% in each case. Also, the chromatographic logP in data set [7] amounted to 1.8; in [9], 2.47.

The record behind these values is patent US20110245284A1, “Alkoxy- and Alkylthio-Substituted Anilinopyrimidines” (Bayer CropScience AG, priority 2008, published 2011).
